{"source": "paper PMC10053369", "about": "“Recombinant Analogs of Sea Anemone Kunitz-Type Peptides Influence P2X7 Receptor Activity in Neuro-2a Cells” (Marine Drugs, 2023)", "system": "P2X7 in Neuro-2a cells", "assay": "ATP-induced Ca2+ influx (Fluo-8 AM)", "format": "cell-based, mouse", "details": "for reduction of calcium level: 30 min pre-incubation, 1 mM ATP", "method": "Neuro-2a neuroblastoma cells (ATCC® CCL-131™) were obtained from American Type Culture Collection (Manassas, VA, USA). The cells were cultivated in DMEM medium (BioloT, St. Petersburg, Russia) supplemented with 10% of fetal bovine serum (BioloT, St. Petersburg, Russia) and 1% penicillin/streptomycin (BioloT, St. Petersburg, Russia) at 37 °C and 5% CO2. Initially, cells were incubated in cultural flasks until sub-confluent (~80%). For testing, Neuro-2a cells were seeded in 96-well plates and experiments were started after 24 h.\nNeuro-2a cells were seeded in 96-well plates at a density of 4 × 10^4 cells/well and incubated in DMEM for 24 h at 37 °C, 5% CO2. Then the cells were washed twice with culture medium and loaded with 5 μM Fluo-8 AM (Abcam, Cambridge, UK) dye and 1 μM Pluronic® F-127 (Sigma-Aldrich, St. Louis, MO, USA), and incubated for 40 min at 37 °C in HBSS: 140 mM NaCl, 5 mM KCl, 0.8 mM MgCl2, 2 mM CaCl2, 10 mM glucose, 10 mM HEPES, pH 7.4. Then the cells were washed two times with the same solution but without the fluorescent dye and treated with the studied peptides for 30 min at RT in the dark. In some experiments Ca^2+-free medium was used: 140 mM NaCl, 5 mM KCl, 0.8 mM MgCl2, 10 mM glucose, 10 mM HEPES, 5 mM EGTA, pH 7.4. ATP (1 mM final concentration) was added using a microinjector (20 μL/well) 10 s later the baseline recording and the readings were taken up to 50 s in 1 s intervals. The standard P2X7 inhibitor, A438079 (Sigma-Aldrich, St. Louis, MO, USA), was used as inhibitory control. Ionomycin (Sigma-Aldrich, St. Louis, MO, USA) and BHQ were used to generate a generic calcium signal in cells. 2,5,-di(t-butyl) hydroquinone (BHQ) was synthesized and kindly provided by Dr. Polonik S.N. (PIBOC FEBRAS). Fluo-8 was excited at 485 nm, and the emission at 520 nm was measured with a PHERAstar®FS plate reader (BMG LABTECH, Ortenberg, Germany). The data were processed by MARS Data Analysis v. 3.01R2 (BMG Labtech, Ortenberg, Germany). Mean values and standard error of peak height calcium were calculated.\nAll data were obtained in three independent replicates and calculated values were expressed as mean ± standard error of the mean (SEM). The Student’s t-test was performed using SigmaPlot 14.0 (Systat Software Inc., San Jose, CA, USA) to determine statistical significance.", "note": "Positions of bridges follow the written chain, without caps; N, C: chain ends. No end group written: not given here."}
{"sequence": "RGICSEPKVVGPCKAGLRRFYYDSETGECKPFIYGGCKGNKNNFETLHACRGICRA (disulfide 4-54, 13-37, 29-50 (inferred)) [HCRG1]", "values": [{"measurement": "reduction of calcium level", "setting": "0.1 μM peptide, mean ± SE, n = 3", "value": "57.5 ± 11.6", "unit": "%"}, {"measurement": "reduction of calcium level", "setting": "0.1–10 μM peptide", "value": "significantly reduced the calcium level"}, {"measurement": "effect on Ca2+ influx (summary in discussion)", "setting": "short-term effect", "value": "a significant effect on Ca^2+ influx into cells"}]}
